Source: patent publication US9149536B2, “Conjugated antimicrobial agents” (priority 2009, dated 2015)
Values after ≈ are worked out from the molar mass of the structure shown.

What was measured:
E. coli AG100B = test: MIC, double-microdilution, E. coli AG100B; assay type: cell-based, Escherichia coli
Source text: AG100B and AG100A are two kanamycin resistant Escherichia coli strains expressing APH(3′)-I aminoglycoside resistance enzyme.

E. coli AG100A = test: MIC, double-microdilution, E. coli AG100A; assay type: cell-based, Escherichia coli
E. coli XL1 blue = test: microbe, parasite or virus in culture; assay type: cell-based; details: Table 6
Description: (§1) For this purpose, exemplary conjugates, according to some embodiments of the present invention, were tested against five isogenic E. coli strains. E. coli (pSF815) and E. coli (pET9d) are laboratory resistant strains derived by transformation of E. coli XL1 blue (background strain) with the pSF815 and pET9d plasmids, respectively. […] The last two isogenic strains used were E. coli BL21 (background strain) and E. coli (pETSACG1). […] These three enzymes are among the most prevalent modes of resistance found in aminoglycosides resistance strains.
(§2) The MIC ratios were calculated by dividing the MIC value against resistant strain to that against the respective background strain.

E. coli XL1 blue/pET9d = test: microbe, parasite or virus in culture; assay type: cell-based; details: Table 6
Description: as §1, §2

B. subtilis ATCC 6633 = test: MIC, double-microdilution, B. subtilis ATCC 6633; assay type: cell-based; details: for MIC B. subtilis ATCC 6633: Table 4; for MIC Bacillus subtilis: Table 6
E. coli ATCC 25922 = test: MIC, double-microdilution, E. coli ATCC 25922; assay type: cell-based, Escherichia coli; details: for MIC E. coli ATCC 25922: Table 4; for MIC E. coli 25922: Table 6
E. coli R477-100 = test: MIC, double-microdilution, E. coli R477-100; assay type: cell-based, Escherichia coli
MRSA ATCC 43300 = test: microbe, parasite or virus in culture; assay type: cell-based, S. aureus; details: Table 4
[1] = Table 4, kanamycin resistant, APH(3′)-I

For NCC1O[C@@H](O[C@H]2C(N)C[C@H](NCc3cn(CCN4CCN(c5cc6c(cc5F)c(=O)c(C(=O)O)cn6C5CC5)CC4)nn3)C(OC3O[C@@H](CO)C(O)C(N)[C@@H]3O)C2O)C(O)C(O)[C@H]1O (stereo partly shown) [Compound 11a, 4-(1-N-kanamycinmethyl)-1-(2-(ciprofloxacin)ethyl)-1H-1,2,3-triazole], the MIC (E. coli AG100B; Escherichia coli, AG100B, read-out: MIC E. coli AG100B, Table 6) was 12 µg/mL (≈ 13 µM), the MIC (E. coli AG100A; Escherichia coli, AG100A, read-out: MIC E. coli AG100A, Table 6) was 0.75 µg/mL (≈ 0.813 µM) and the MIC (E. coli XL1 blue; Escherichia coli, XL1BLUE, read-out: MIC E. coli XL1 blue) was 6 µg/mL (≈ 6.5 µM). For the same molecule, the MIC (E. coli XL1 blue/pET9d; Escherichia coli, XL1BLUE/PET9D, read-out: MIC E. coli XL1 blue/pET9d-aph(3′)-Ia) was 6 µg/mL (≈ 6.5 µM), the MIC (B. subtilis ATCC 6633; Bacillus subtilis, ATCC6633, read-out: MIC Bacillus subtilis) was 1.5 µg/mL (≈ 1.63 µM) and the MIC (E. coli ATCC 25922; Escherichia coli, ATCC25922, read-out: MIC E. coli 25922) was 3 µg/mL (≈ 3.25 µM). It also gave an MIC (E. coli R477-100; Escherichia coli, R477100, read-out: MIC E. Coli R477-100) of 6 µg/mL (≈ 6.5 µM).

NCC1OC(OC2C(C(=O)NCc3cn(CCCCCN4CCN(c5cc6c(cc5F)c(=O)c(C(=O)O)cn6C5CC5)CC4)nn3)OC(OC3C(O)C(N)CC(N)C3OC3OC(CN)C(O)C(O)C3N)C2O)C(N)C(O)C1O (stereo not shown) [Compound 1l, N-((1-(4-(ciprofloxacin)pentyl)-1H-1,2,3-triazol-4-yl)-5″-methyl)neomycin carboxamide] was tested, and the “MIC E. coli AG100B” value (E. coli AG100B; [1]) was 24 µg/mL (≈ 21.7 µM), the “MIC MRSA ATCC 43300” value (MRSA ATCC 43300) was 48 µg/mL (≈ 43.3 µM) and the “MIC E. coli AG100A” value (E. coli AG100A; [1]) was 1.5 µg/mL (≈ 1.35 µM). For the same molecule, the “MIC B. subtilis ATCC 6633” value (B. subtilis ATCC 6633) was 12 µg/mL (≈ 10.8 µM), the “MIC E. coli ATCC 25922” value (E. coli ATCC 25922) was 6 µg/mL (≈ 5.41 µM) and the “MIC E. coli R477-100” value (E. coli R477-100; Table 4) was 24 µg/mL (≈ 21.7 µM).

In the case of NCC1OC(OC2C(C(=O)Nc3ccc(-c4cn(CCCCN5CCN(c6cc7c(cc6F)c(=O)c(C(=O)O)cn7C6CC6)CC5)nn4)cc3)OC(OC3C(O)C(N)CC(N)C3OC3OC(CN)C(O)C(O)C3N)C2O)C(N)C(O)C1O (stereo not shown) [Compound 1c, N-(4-(1-(2-(ciprofloxacin)butyl)-1H-1,2,3-triazol-4-yl)-5″-phenyl)neomycin carboxamide], the “MIC E. coli AG100B” value (E. coli AG100B; [1]) is reported as 24 µg/mL (≈ 20.8 µM), the “MIC MRSA ATCC 43300” value (MRSA ATCC 43300) is reported as 24 µg/mL (≈ 20.8 µM) and the “MIC E. coli AG100A” value (E. coli AG100A; [1]) is reported as 1.5 µg/mL (≈ 1.3 µM). For the same molecule, the “MIC B. subtilis ATCC 6633” value (B. subtilis ATCC 6633) was 6 µg/mL (≈ 5.19 µM), the “MIC E. coli ATCC 25922” value (E. coli ATCC 25922) was 6 µg/mL (≈ 5.19 µM) and the “MIC E. coli R477-100” value (E. coli R477-100; Table 4) was 12 µg/mL (≈ 10.4 µM).

In the case of NCC1OC(OC2C(C(=O)Nc3ccc(-c4cn(CCOCCN5CCN(c6cc7c(cc6F)c(=O)c(C(=O)O)cn7C6CC6)CC5)nn4)cc3)OC(OC3C(O)C(N)CC(N)C3OC3OC(CN)C(O)C(O)C3N)C2O)C(N)C(O)C1O (stereo not shown) [Compound 1g, N-(4-(1-(2-(2-(ciprofloxacin)ethoxy)ethyl)-1H-1,2,3-triazol-4-yl)-5″-phenyl)neomycin carboxamide], the “MIC E. coli AG100B” value (E. coli AG100B; [1]) is reported as 12 µg/mL (≈ 10.2 µM), the “MIC MRSA ATCC 43300” value (MRSA ATCC 43300) is reported as 24 µg/mL (≈ 20.5 µM) and the “MIC E. coli AG100A” value (E. coli AG100A; [1]) is reported as 1.5 µg/mL (≈ 1.28 µM). For the same molecule, the “MIC B. subtilis ATCC 6633” value (B. subtilis ATCC 6633) was 12 µg/mL (≈ 10.2 µM), the “MIC E. coli ATCC 25922” value (E. coli ATCC 25922) was 12 µg/mL (≈ 10.2 µM) and the “MIC E. coli R477-100” value (E. coli R477-100; Table 4) was 24 µg/mL (≈ 20.5 µM).

In the case of NCC1OC(OC2C(N)CC(NCc3cn(CC(O)CN4CCN(c5cc6c(cc5F)c(=O)c(C(=O)O)cn6C5CC5)CC4)nn3)C(OC3OC(CO)C(O)C(N)C3O)C2O)C(O)C(O)C1O (stereo not shown) [Compound 11f, 1-(4-(1-N-kanamycinmethyl)-1H-1,2,3-triazol-1-yl)-3-(ciprofloxacin)propan-2-ol], the “MIC E. coli AG100B” value (E. coli AG100B; Table 6) is reported as 6 µg/mL (≈ 6.3 µM), the “MIC E. coli AG100A” value (E. coli AG100A; Table 6) is reported as 0.75 µg/mL (≈ 0.787 µM) and the “MIC E. coli XL1 blue” value (E. coli XL1 blue) is reported as 3 µg/mL (≈ 3.15 µM). The “MIC E. coli XL1 blue/pET9d-aph(3′)-Ia” value (E. coli XL1 blue/pET9d) was 3 μg/ml, the “MIC Bacillus subtilis” value (B. subtilis ATCC 6633) was 1.5 µg/mL (≈ 1.57 µM) and the “MIC E. coli 25922” value (E. coli ATCC 25922) was 1.5 µg/mL (≈ 1.57 µM). For the same molecule, the “MIC E. coli R477-100” value (E. coli R477-100; Table 6) was 3 µg/mL (≈ 3.15 µM).

For NCC1OC(OC2C(N)CC(NCc3cn(Cc4ccc(CN5CCN(c6cc7c(cc6F)c(=O)c(C(=O)O)cn7C6CC6)CC5)cc4)nn3)C(OC3OC(CO)C(O)C(N)C3O)C2O)C(O)C(O)C1O (stereo not shown) [Compound 11i, 4-(1-N-kanamycinmethyl)-1-(4-((ciprofloxacin)methyl)benzyl)-1H-1,2,3-triazole], the “MIC E. coli AG100B” value (E. coli AG100B; Table 6) was 12 µg/mL (≈ 12 µM), the “MIC E. coli AG100A” value (E. coli AG100A; Table 6) was 0.75 µg/mL (≈ 0.751 µM) and the “MIC E. coli XL1 blue” value (E. coli XL1 blue) was 3 µg/mL (≈ 3 µM). For the same molecule, the “MIC E. coli XL1 blue/pET9d-aph(3′)-Ia” value (E. coli XL1 blue/pET9d) was 3 μg/ml, the “MIC Bacillus subtilis” value (B. subtilis ATCC 6633) was 3 µg/mL (≈ 3 µM) and the “MIC E. coli 25922” value (E. coli ATCC 25922) was 6 µg/mL (≈ 6.01 µM). The “MIC E. coli R477-100” value (E. coli R477-100; Table 6) was 6 µg/mL (≈ 6.01 µM).

For NCC1OC(OC2C(C(=O)NCc3cn(CCCN4CCN(c5cc6c(cc5F)c(=O)c(C(=O)O)cn6C5CC5)CC4)nn3)OC(OC3C(O)C(N)CC(N)C3OC3OC(CN)C(O)C(O)C3N)C2O)C(N)C(O)C1O (stereo not shown) [Compound 1k, N-((1-(4-(ciprofloxacin)propyl)-1H-1,2,3-triazol-4-yl)-5″-methyl)neomycin carboxamide], the “MIC E. coli AG100B” value (E. coli AG100B; [1]) was 12 µg/mL (≈ 11.1 µM), the “MIC MRSA ATCC 43300” value (MRSA ATCC 43300) was 48 µg/mL (≈ 44.4 µM) and the “MIC E. coli AG100A” value (E. coli AG100A; [1]) was 1.5 µg/mL (≈ 1.39 µM). For the same molecule, the “MIC B. subtilis ATCC 6633” value (B. subtilis ATCC 6633) was 6 µg/mL (≈ 5.55 µM), the “MIC E. coli ATCC 25922” value (E. coli ATCC 25922) was 6 µg/mL (≈ 5.55 µM) and the “MIC E. coli R477-100” value (E. coli R477-100; Table 4) was 12 µg/mL (≈ 11.1 µM).

For NC[C@H]1O[C@H](O[C@H]2[C@H](O)[C@@H](O[C@H]3O[C@H](CO)[C@@H](O)[C@H](N)[C@H]3O)[C@H](N)C[C@@H]2N)[C@H](O)[C@@H](O)[C@@H]1O [KanA, kanamycin A, reference compound], the “MIC E. coli AG100B” value (E. coli AG100B; Table 6) was >384 µg/mL, the “MIC E. coli AG100A” value (E. coli AG100A; Table 6) was 384 µg/mL (≈ 793 µM) and the “MIC E. coli XL1 blue” value (E. coli XL1 blue) was 3 µg/mL (≈ 6.19 µM). The “MIC E. coli XL1 blue/pET9d-aph(3′)-Ia” value (E. coli XL1 blue/pET9d) was >384 μg/ml, the “MIC Bacillus subtilis” value (B. subtilis ATCC 6633) was 1.5 µg/mL (≈ 3.1 µM) and the “MIC E. coli 25922” value (E. coli ATCC 25922) was 12 µg/mL (≈ 24.8 µM). For the same molecule, the “MIC E. coli R477-100” value (E. coli R477-100; Table 6) was 24 µg/mL (≈ 49.5 µM).
